Laboratory results: patent US20230303549A1, “SUBSTITUTED HETEROARYLOXYPYRIDINES, THE SALTS THEREOF AND THEIR USE AS HERBICIDAL AGENTS” (Bayer Aktiengesellschaft, priority 2020, published 2023)

Legend:
Type in all cases: in vivo
[1] = test system: Echinochloa crus-galli (ECHCG); experiment: Pre-emergence herbicide efficacy at 320 g/ha, greenhouse pot test; details: visual scoring vs untreated control after about 3 weeks
In short: (§1)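 Weed seeds were sown in sandy loam in pots, one mono- or dicot species per pot, and covered with soil. WP or EC formulations were sprayed onto the soil surface as aqueous suspension or emulsion with 0.5% additive at 600 L/ha water. Visual scoring after about 3 weeks, % activity versus untreated controls.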

Veronica persica (VERPE) [2] = experiment: as above; details: visual scoring vs untreated control after about 3 weeks
In short: as §1

Poa annua (POAAN) [3] = experiment: as above; details: visual scoring vs untreated control after about 3 weeks
In short: as §1

[4] = test system: Abutilon theophrasti (ABUTH); experiment: as above; details: visual scoring vs untreated control after about 3 weeks
In short: as §1

[5] = test system: Matricaria inodora (MATIN); experiment: as above; details: visual scoring vs untreated control after about 3 weeks
In short: as §1

Setaria viridis (SETVI) [6] = experiment: as above; details: visual scoring vs untreated control after about 3 weeks
In short: as §1

Stellaria media (STEME) [7] = experiment: as above; details: visual scoring vs untreated control after about 3 weeks
In short: as §1

Bassia scoparia (KCHSC) [8] = experiment: as above; details: dosage 1280 g/ha in Table C6, visual scoring after about 3 weeks
In short: as §1

[9] = test system: Amaranthus retroflexus (AMARE); experiment: as above; details: visual scoring vs untreated control after about 3 weeks
In short: as §1

Veronica persica (VERPE) [10] = experiment: Post-emergence herbicidal efficacy at 320 g/ha, greenhouse pot test; details: 320 g/ha, visual rating vs untreated control after about 3 weeks
In short: (§2)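 Applied onto green plant parts as suspension or emulsion at a 600 L/ha water rate, containing 0.5% additive. Potted weeds in sandy loam were treated at one leaf and assessed visually versus controls about three weeks later.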

Poa annua (POAAN) [11] = experiment: as above; details: visual rating vs untreated control after about 3 weeks
In short: as §2

[12] = test system: Abutilon theophrasti (ABUTH); experiment: as above; details: visual rating vs untreated control after about 3 weeks
In short: as §2

Stellaria media (STEME) [13] = experiment: as above; details: visual rating vs untreated control after about 3 weeks
In short: as §2

Bassia scoparia (KCHSC) [14] = experiment: as above; details: visual rating vs untreated control after about 3 weeks
In short: as §2

[15] = test system: Amaranthus retroflexus (AMARE); experiment: as above; details: visual rating vs untreated control after about 3 weeks
In short: as §2

Setaria viridis (SETVI) [16] = experiment: Post-emergence herbicidal efficacy at 80 g/ha, greenhouse pot test; details: visual rating vs untreated control after about 3 weeks
In short: (§3)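 Visual rating of activity versus untreated plants after about 3 greenhouse weeks, 0% meaning control-like and 100% meaning dead. Plants in sandy loam were sprayed at one-leaf stage (2–3 weeks post-sowing) with WP/EC compound suspensions or emulsions, 0.5% additive, 600 l/ha water.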

[17] = test system: Amaranthus retroflexus (AMARE); experiment: as above; details: visual rating vs untreated control after about 3 weeks
In short: as §3

[18] = test system: Echinochloa crus-galli (ECHCG); experiment: Pre-emergence herbicide efficacy at 80 g/ha, greenhouse pot test; details: visual scoring vs untreated control after about 3 weeks
In short: (§4)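 Seeds were sown in pots and covered with soil, then the compound (WP or EC formulation) was sprayed onto the soil surface as an aqueous suspension or emulsion with 0.5% additive. Pots were kept in a greenhouse, and after about 3 weeks activity was scored visually versus untreated controls (100% = plants dead, 0% = like control).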

Ipomoea purpurea (PHBPU) = experiment: as above; details: visual scoring vs untreated control after about 3 weeks
In short: as §4

Veronica persica (VERPE) [19] = experiment: as above; details: visual scoring vs untreated control after about 3 weeks
In short: as §4

[20] = test system: Abutilon theophrasti (ABUTH); experiment: as above; details: visual scoring vs untreated control after about 3 weeks
In short: as §4

[21] = test system: Matricaria inodora (MATIN); experiment: as above; details: visual scoring vs untreated control after about 3 weeks
In short: as §4

Setaria viridis (SETVI) [22] = experiment: as above; details: visual scoring vs untreated control after about 3 weeks
In short: as §4

[23] = test system: Alopecurus myosuroides (ALOMY); experiment: as above; details: visual scoring vs untreated control after about 3 weeks
In short: as §4

Viola tricolor (VIOTR) [24] = experiment: as above; details: visual scoring vs untreated control after about 3 weeks
In short: as §4

[25] = test system: Polygonum convolvulus (POLCO); experiment: as above; details: visual scoring vs untreated control after about 3 weeks
In short: as §4

[26] = test system: Amaranthus retroflexus (AMARE); experiment: as above; details: visual scoring vs untreated control after about 3 weeks
In short: as §4

[27] = test system: Alopecurus myosuroides (ALOMY); experiment: Pre-emergence herbicide efficacy at 320 g/ha, greenhouse pot test; details: visual scoring vs untreated control after about 3 weeks
In short: as §1

[28] = test system: Echinochloa crus-galli (ECHCG); experiment: Post-emergence herbicidal efficacy at 320 g/ha, greenhouse pot test; details: visual rating vs untreated control after about 3 weeks
In short: as §2

[29] = test system: Alopecurus myosuroides (ALOMY); experiment: as above; details: visual rating vs untreated control after about 3 weeks
In short: as §2

Viola tricolor (VIOTR) [30] = experiment: Post-emergence herbicidal efficacy at 80 g/ha, greenhouse pot test; details: visual rating vs untreated control after about 3 weeks
In short: as §3

Lolium rigidum (LOLRI) = experiment: Pre-emergence herbicide efficacy at 320 g/ha, greenhouse pot test; details: visual scoring vs untreated control after about 3 weeks
In short: as §1

[31] = test system: Polygonum convolvulus (POLCO); experiment: Post-emergence herbicidal efficacy at 80 g/ha, greenhouse pot test; details: visual rating vs untreated control after about 3 weeks
In short: as §3

SMILES	Pre-emergence efficacy against Echinochloa crus-galli (ECHCG) [1]	Pre-emergence efficacy against Veronica persica (VERPE) (Veronica persica (VERPE) [2])	Pre-emergence efficacy against Poa annua (POAAN) (Poa annua (POAAN) [3])	Pre-emergence efficacy against Abutilon theophrasti (ABUTH) [4]	Pre-emergence efficacy against Matricaria inodora (MATIN) [5]	Pre-emergence efficacy against Setaria viridis (SETVI) (Setaria viridis (SETVI) [6])	Pre-emergence efficacy against Stellaria media (STEME) (Stellaria media (STEME) [7])	Pre-emergence efficacy against Bassia scoparia (KCHSC) (Bassia scoparia (KCHSC) [8])	Pre-emergence efficacy against Amaranthus retroflexus (AMARE) [9]	Post-emergence efficacy against Veronica persica (VERPE) (Veronica persica (VERPE) [10])	Post-emergence efficacy against Poa annua (POAAN) (Poa annua (POAAN) [11])	Post-emergence efficacy against Abutilon theophrasti (ABUTH) [12]	Post-emergence action against Stellaria media (STEME) (Stellaria media (STEME) [13])	Post-emergence efficacy against Amaranthus retroflexus (AMARE) [15]	Post-emergence efficacy against Setaria viridis (SETVI) (Setaria viridis (SETVI) [16])	Post-emergence efficacy against Amaranthus retroflexus (AMARE) [17]	Pre-emergence efficacy against Echinochloa crus-galli (ECHCG) [18]	Pre-emergence efficacy against Setaria viridis (SETVI) (Setaria viridis (SETVI) [22])	Pre-emergence efficacy against Viola tricolor (VIOTR) (Viola tricolor (VIOTR) [24])	Pre-emergence efficacy against Amaranthus retroflexus (AMARE) [26]	further results
Cc1cc(C)c(-n2cc(Br)cn2)c(Oc2ncc(F)cn2)n1 [Example I-277]	100%	100%	100%	100%	90%	100%	100%	100%	100%	90%	90%	90%	90%	100%	80%	80%	100%	100%	100%	100%	Post-emergence efficacy against Bassia scoparia (KCHSC) (Bassia scoparia (KCHSC) [14]): 100%; Pre-emergence efficacy against Ipomoea purpurea (PHBPU) (Ipomoea purpurea (PHBPU)): 100%; Pre-emergence efficacy against Veronica persica (VERPE) (Veronica persica (VERPE) [19]): 80%; Pre-emergence efficacy against Abutilon theophrasti (ABUTH) [20]: 90%; Pre-emergence efficacy against Matricaria inodora (MATIN) [21]: 100%; Pre-emergence efficacy against Alopecurus myosuroides (ALOMY) [23]: 80%; Pre-emergence efficacy against Polygonum convolvulus (POLCO) [25]: 100%
Cc1cc(C)c(-c2cc(C(F)F)no2)c(Oc2ncc(C(F)(F)F)cn2)n1 [Example I-45]	100%	100%	100%	100%	100%	100%	100%	100%	100%	100%	100%	90%	100%	100%	80%	80%	80%	90%	90%	100%	Pre-emergence efficacy against Alopecurus myosuroides (ALOMY) [27]: 100%; Post-emergence efficacy against Bassia scoparia (KCHSC) (Bassia scoparia (KCHSC) [14]): 90%; Pre-emergence efficacy against Veronica persica (VERPE) (Veronica persica (VERPE) [19]): 80%; Pre-emergence efficacy against Abutilon theophrasti (ABUTH) [20]: 90%; Pre-emergence efficacy against Polygonum convolvulus (POLCO) [25]: 80%
Cc1cc(C)c(-c2cc(C(F)F)no2)c(Oc2ccc(Cl)cn2)n1 [Example I-43]	90%	100%	100%	100%	90%	100%	100%	100%	100%	100%	90%	90%	100%	100%				90%	80%	100%	Post-emergence efficacy against Echinochloa crus-galli (ECHCG) [28]: 90%; Post-emergence efficacy against Alopecurus myosuroides (ALOMY) [29]: 90%; Post-emergence efficacy against Viola tricolor (VIOTR) (Viola tricolor (VIOTR) [30]): 80%; Pre-emergence efficacy against Veronica persica (VERPE) (Veronica persica (VERPE) [19]): 90%; Pre-emergence efficacy against Matricaria inodora (MATIN) [21]: 90%
Cc1cc(C)c(-n2cc(I)cn2)c(Oc2ncc(F)cn2)n1 [Example I-294]	100%	100%	100%	100%	100%	100%	100%	100%	100%	100%	90%	90%	100%	100%	90%	80%	90%	100%	100%	100%	Pre-emergence efficacy against Lolium rigidum (LOLRI) (Lolium rigidum (LOLRI)): 100%; Post-emergence efficacy against Polygonum convolvulus (POLCO) [31]: 80%; Pre-emergence efficacy against Ipomoea purpurea (PHBPU) (Ipomoea purpurea (PHBPU)): 100%; Pre-emergence efficacy against Abutilon theophrasti (ABUTH) [20]: 90%; Pre-emergence efficacy against Matricaria inodora (MATIN) [21]: 100%; Pre-emergence efficacy against Alopecurus myosuroides (ALOMY) [23]: 90%; Pre-emergence efficacy against Polygonum convolvulus (POLCO) [25]: 90%
